By IC50 is commonly meant the concentration needed to halve the response being measured. The EC50 is the concentration needed to bring the measured effect to its halfway point.

The text below walks through data of PMC6056499, “A systematic dissection of sequence elements determining β-Klotho and FGF interaction and signaling” (Scientific Reports, 2018).

The target of one assay is T1, β-Klotho (Homo sapiens, UniProt Q86Z14).
T1 construct: the ECD of human β-Klotho (aa1–992) fused with a 6 × His tag at the C-terminus; made in house
T1 sequence (Q86Z14 1-992): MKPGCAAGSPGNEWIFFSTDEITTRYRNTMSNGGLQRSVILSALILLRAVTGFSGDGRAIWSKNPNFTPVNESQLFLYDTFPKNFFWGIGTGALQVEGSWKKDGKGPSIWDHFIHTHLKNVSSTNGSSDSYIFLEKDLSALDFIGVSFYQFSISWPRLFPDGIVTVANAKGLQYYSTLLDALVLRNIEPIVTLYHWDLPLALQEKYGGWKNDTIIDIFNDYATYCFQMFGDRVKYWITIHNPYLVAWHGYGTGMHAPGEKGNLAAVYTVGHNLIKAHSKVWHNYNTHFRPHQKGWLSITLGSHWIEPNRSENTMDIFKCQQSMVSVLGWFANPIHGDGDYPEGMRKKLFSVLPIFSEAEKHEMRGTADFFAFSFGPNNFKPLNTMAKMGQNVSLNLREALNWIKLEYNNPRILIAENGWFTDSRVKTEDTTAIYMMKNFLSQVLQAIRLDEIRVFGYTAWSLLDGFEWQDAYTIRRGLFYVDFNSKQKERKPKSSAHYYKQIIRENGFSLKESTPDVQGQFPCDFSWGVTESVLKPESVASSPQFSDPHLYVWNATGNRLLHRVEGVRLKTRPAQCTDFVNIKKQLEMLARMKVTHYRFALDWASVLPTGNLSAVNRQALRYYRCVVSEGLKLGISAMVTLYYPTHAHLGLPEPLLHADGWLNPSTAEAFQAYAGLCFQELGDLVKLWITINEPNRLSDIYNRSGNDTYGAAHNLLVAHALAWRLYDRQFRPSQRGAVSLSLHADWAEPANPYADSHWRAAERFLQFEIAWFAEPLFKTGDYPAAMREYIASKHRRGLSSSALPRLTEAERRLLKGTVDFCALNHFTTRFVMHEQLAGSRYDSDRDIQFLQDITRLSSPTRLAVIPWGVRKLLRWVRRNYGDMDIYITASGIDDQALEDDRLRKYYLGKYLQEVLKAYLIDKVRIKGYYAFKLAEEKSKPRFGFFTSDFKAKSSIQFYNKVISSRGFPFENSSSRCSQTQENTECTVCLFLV
The assay is described as follows: AlphaScreen competition binding assay (inhibition of β-Klotho binding to biotinylated FGF19 or FGF21). The settings on record: Suppl Fig S6A, 20 nM β-Klotho ECD 6×His, 40 nM biotinylated human FGF21, d.n.c. = did not converge. The protocol:
FGF19 and FGF21 C-terminal WT and mutant peptides were custom synthesized and purified (>95% purity) (LifeTein LLC, South Plainfield, NJ). Binding of FGF19 and FGF21 peptides to β-Klotho was assessed using an AlphaScreen® assay. Briefly, 20 nM of β-Klotho ECD 6 × His, varying amounts of FGF19 and 21 peptides, and 40 nM of biotinylated human FGF19 or FGF21 protein were prepared in AlphaLISA universal buffer (PerkinElmer) and added to individual wells in 384-well white opaque plates (Greiner Bio-One). Subsequently, streptavidin donor beads and nickel chelate (Ni-NTA) acceptor beads (AlphaScreen Histidine detection kit; PerkinElmer) were diluted to 40 µg/mL and added to the plates. Total reaction volume was 8 µL. Plates were incubated for 3 hours at room temperature protected from light and read on the EnVision Multilabel Plate Reader (PerkinElmer) according to the manufacturer’s instructions. Assays were performed in triplicate. IC50 values were determined from a three-parameter logistic regression model with the least squares fit using GraphPad Prism version 7.
For orientation: Alpha assays give light when donor and acceptor beads are brought close together.

The subject of assay [1] is FGFR (expressed endogenously in HEK293T reporter cells). Kind of assay: Elk1-luciferase reporter assay in HEK293T reporter cells without β-Klotho (no KLB). The settings on record: d.n.c = did not converge. In kind it is cell-based, human. The protocol:
To measure the signaling activity of β-Klotho mutants, ELK luciferase assay was performed in HEK293T cells that were stably transfected with reporter constructs containing 5 × UAS upstream of luciferase and Gal4 DNA-binding domain fused to ELK1. Briefly, HEK293T reporter cells were maintained in DMEM supplemented with 10% (v/v) FBS (Gibco) and 2 mM GlutaMax (Gibco) in a 37 °C incubator with 5% CO2. Cells were plated on 96-well plates in growth medium and incubated overnight. […] Cells were serum-starved in DMEM supplemented with 5% (v/v) FBS (Gibco) and 2 mM GlutaMax (Gibco) overnight the day after transfection and treated with FGF21 for 6 hours at 37 °C with 5% CO2, after which the cells were lysed in Bright-Glo luciferase reagent (Promega). Luciferase activity was measured in relative luminescence units on the EnVision Multilabel Plate Reader (PerkinElmer) according to the manufacturer’s instructions. All assays were performed in duplicates. EC50 values were determined from a three-parameter logistic regression model with the least squares fit using GraphPad Prism version 7.

In a further assay the test system is β-Klotho/FGFR complex. The assay is described as follows: Elk1-luciferase reporter assay in HEK293T reporter cells transiently transfected with full-length WT β-Klotho. In kind it is cell-based, human. The conditions noted are these: 6 h treatment, mean ± SD of three independent experiments, read-out: EC50, stimulation of Elk1-luciferase reporter activity (KLB WT). How it is done: To measure the signaling activity of β-Klotho mutants, ELK luciferase assay was performed in HEK293T cells that were stably transfected with reporter constructs containing 5 × UAS upstream of luciferase and Gal4 DNA-binding domain fused to ELK1. Briefly, HEK293T reporter cells were maintained in DMEM supplemented with 10% (v/v) FBS (Gibco) and 2 mM GlutaMax (Gibco) in a 37 °C incubator with 5% CO2. Cells were plated on 96-well plates in growth medium and incubated overnight. The next day, cells were transfected with expression vectors encoding full-length β-Klotho WT or mutants using the Lipofectamine 2000 transfection reagent (Invitrogen) according to the manufacturer’s protocol. Cells were serum-starved in DMEM supplemented with 5% (v/v) FBS (Gibco) and 2 mM GlutaMax (Gibco) overnight the day after transfection and treated with FGF21 for 6 hours at 37 °C with 5% CO2, after which the cells were lysed in Bright-Glo luciferase reagent (Promega). Luciferase activity was measured in relative luminescence units on the EnVision Multilabel Plate Reader (PerkinElmer) according to the manufacturer’s instructions. All assays were performed in duplicates. EC50 values were determined from a three-parameter logistic regression model with the least squares fit using GraphPad Prism version 7.
On the technique in general: A reporter such as luciferase makes a cellular process visible.

Where two headings read alike, the source gives them in different places. No end group written: not given here.

Consider PQPPDAGSSDPLSMVGPSQGRSPSYAS [188V-A], for which, on β-Klotho, the “IC50, competition with FGF21 (FGF21 C-terminal peptides)” value is reported as “d.n.c”.

Regarding PQPPDVGSSDPLSMVGPSQGASPSYAS [203R-A], the IC50 on β-Klotho (read-out: IC50, competition with FGF21 (FGF21 C-terminal peptides)) was found to be 7.3 nM.

As for “FGF1: a prototypical paracrine FGF [reference compound]”, the half-maximal effective concentration (EC50) stood at 0.049 ± 0.037 nM in assay [1] (Fig 3A, mean ± SD of three independent experiments, read-out: EC50, stimulation of Elk1-luciferase reporter activity (no KLB)) and 0.038 ± 0.024 nM in the assay on β-Klotho/FGFR complex (Fig 3A).

“FGF19: mature human FGF19 protein, endocrine fibroblast growth factor”: the “EC50, stimulation of Elk1-luciferase reporter activity (no KLB)” value in assay [1] (Fig 3D) is “d.n.c”. In addition, the half-maximal effective concentration (EC50) with β-Klotho/FGFR complex (Fig 3D) stood at 2.88 ± 1.43 nM.

PQPPDVGSSDALSMVGPSQGRSPSYAS [193P-A]: the “IC50, competition with FGF21 (FGF21 C-terminal peptides)” value on β-Klotho is recorded as “d.n.c”.
